Results taken from PubChem BioAssay AID2401 (Southern Research Specialized Biocontainment Screening …, 2010).

Test system: S. Typhimurium GFP reporter counter-screen, fluorescence, 4 h
Assay: S. Typhimurium nonspecific reporter signal inhibition – Salmonella Typhimurium, GFP fluorescence, counter-screen for PhoP regulon inhibitor project, dose response (AID 2401);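 also: S. typhimurium with Mg-insensitive nmpC-GFP reporter grown at 10 µM Mg2+; drop in reporter fluorescence reflects general culture growth inhibition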

Row | SMILES | IC50 [µM]
1 | CC(C)(C)CC(C)(C)c1ccc(OCCOCC[N+](C)(C)Cc2ccccc2)cc1 | 32.8
2 | N#CC1=C(S)N(c2ccccc2)C(c2ccc(-c3ccccc3Cl)o2)NC1=O (stereo not drawn) | 144
3 | Cc1ccc(C(C[N+](=O)[O-])c2c(C)cc3ccccn23)cc1 (stereo not drawn) | 65
4 | Nc1nnc(-c2cccc(Cl)c2Cl)c(N)n1 | 60.5
5 | O=c1c2c(-c3ccccc3)csc2nc2c3ccccc3c(NCCN3CCOCC3)nn12 | 147
6 | C[CH2][Hg][S]c1ccccc1C(=O)O | 54.9
7 | N=c1n(CC(=O)c2ccc(Br)s2)c2ccccc2n1Cc1ccccc1 | 40.4
8 | ON=C1/C(=N\O)CC2(C/C1=N/O)OCCO2 | 98.3
9 | CC1CCc2cc(F)cc3c(=O)c(C(=O)O)cn1c23 (stereo not drawn) | 20.9
10 | Cc1ccc(C)c(/C=C/C(=O)c2ccccc(=O)c2O)c1 | 38.9
11 | O=C(NNC(=O)c1cnccn1)c1ccc(Cl)cc1 | 117
12 | C#CCOCCOCCOCCNc1nc(N2CCN(C(=O)CCCCCCCCCCNC(=O)[C@H](CCCCN)n3cc(C[C@@H](C)CC)nn3)CC2)nc(N2CCN(C(=O)CCCCCCCCCCNC(=O)[C@H](CCCN=C(N)N)n3cc(C[C@@H](C)CC)nn3)CC2)n1 | 78
13 | CCN(CC)c1ccc(/C=N/Nc2nc3ccccc3[nH]2)c(O)c1 | 33.7
14 | O=C(N[C@H](CO)[C@H](O)c1ccc([N+](=O)[O-])cc1)C(Cl)Cl | 9.59
15 | COc1nsnc1NS(=O)(=O)c1ccc(NC(=S)NC(=O)c2cccnc2)cc1 | 42.6
16 | O=C(NC(=S)NNC(=O)c1ccccc1O)c1ccco1 | 41.5
17 | Nc1nc(N)c(Cc2ccc(Cl)cc2Cl)c(N)n1 | 100
18 | Cc1cc2nc3ccc(=[N+](C)C)cc-3sc2cc1N | 36.5
